# Experiments:
# [1] = tested on: COLO 205; experiment: panel of 60 human tumor cell lines, growth inhibition (Colon Cancer)
# [2] = tested on: NCI-H23; experiment: panel of 60 human tumor cell lines, growth inhibition (Non-Small Cell Lung Cancer)
# [3] = tested on: IGROV1; experiment: panel of 60 human tumor cell lines, growth inhibition (Ovarian Cancer); conditions: for Percent Growth: IGROVI
# [4] = tested on: NCI/ADR-RES; experiment: as above
# [5] = tested on: CAKI-1; experiment: panel of 60 human tumor cell lines, growth inhibition (Renal Cancer)
# [6] = tested on: HOP-92; experiment: panel of 60 human tumor cell lines, growth inhibition (Non-Small Cell Lung Cancer); conditions: for Percent Growth: HOP-92; for GI50: HOP-92, HOP-92
# [7] = tested on: SK-MEL-28; experiment: panel of 60 human tumor cell lines, growth inhibition (Melanoma)
# [8] = tested on: MOLT-4; experiment: panel of 60 human tumor cell lines, growth inhibition (Leukemia)
# [9] = tested on: RXF 393; experiment: panel of 60 human tumor cell lines, growth inhibition (Renal Cancer); conditions: for GI50: RXF 393, RXF 393; for Percent Growth: RXF 393
# [10] = tested on: PC-3; experiment: panel of 60 human tumor cell lines, growth inhibition (Prostate Cancer)
# [11] = tested on: DU-145; experiment: as above
# [12] = tested on: SF-539; experiment: panel of 60 human tumor cell lines, growth inhibition (CNS Cancer)
# [13] = tested on: UACC-62; experiment: panel of 60 human tumor cell lines, growth inhibition (Melanoma)
# [14] = tested on: SNB-19; experiment: panel of 60 human tumor cell lines, growth inhibition (CNS Cancer)
# [15] = tested on: SK-MEL-2; experiment: panel of 60 human tumor cell lines, growth inhibition (Melanoma)
# [16] = tested on: KM12; experiment: panel of 60 human tumor cell lines, growth inhibition (Colon Cancer)
# [17] = tested on: MDA-MB-468; experiment: panel of 60 human tumor cell lines, growth inhibition (Breast Cancer)
# [18] = tested on: A498; experiment: panel of 60 human tumor cell lines, growth inhibition (Renal Cancer)
compound,measurement,setting,value
"C=C1C(=O)O[C@H]2[C@H]1CC/C(COC(=O)NCCc1ccccn1)=C\CC[C@@]1(C)O[C@@H]21 [JVM 61, ((1aR,7aS,10aS,10bS,E)-1a-methyl-8-methylene-9-oxo-1a,2,3,6,7,7a,8,9,10a,10b-decahydrooxireno[2′,3′:9,10]cyclodeca[1,2-b]furan-5-yl)methyl-(2-(pyridin-2-yl)ethyl)carbamate]",Percent Growth,"[1]; COLO 205, Log10 Concentration −4.0",−79%
same,Percent Growth,"[1]; COLO 205, Log10 Concentration −5.0",3%
same,Percent Growth,"[1]; COLO 205, Log10 Concentration −6.0",107%
same,Percent Growth,"[1]; COLO 205, Log10 Concentration −7.0",108%
same,Percent Growth,"[1]; COLO 205, Log10 Concentration −8.0",104%
same,GI50,"[1]; Homo sapiens, COLO 205",3.54 µM
same,CC50,"[1]; Homo sapiens, COLO 205, read-out: LC50",44.6 µM
same,IC (TGI),"[1]; Homo sapiens, COLO 205, read-out: TGI",11 µM
same,GI50,"[2]; Homo sapiens, NCI-H23",11.3 µM
same,CC50,"[2]; Homo sapiens, NCI-H23, read-out: LC50",78.8 µM
same,IC (TGI),"[2]; Homo sapiens, NCI-H23, read-out: TGI",29.9 µM
same,Percent Growth,"[2]; NCI-H23, Log10 Concentration −4.0",−62%
same,Percent Growth,"[2]; NCI-H23, Log10 Concentration −5.0",56%
same,Percent Growth,"[2]; NCI-H23, Log10 Concentration −6.0",100%
same,Percent Growth,"[2]; NCI-H23, Log10 Concentration −7.0",101%
same,Percent Growth,"[2]; NCI-H23, Log10 Concentration −8.0",104%
same,GI50,"[3]; Homo sapiens, IGROV-1",14.4 µM
same,CC50,"[3]; Homo sapiens, IGROV-1, read-out: LC50",78.9 µM
same,IC (TGI),"[3]; Homo sapiens, IGROV-1, read-out: TGI",33.8 µM
same,Percent Growth,[3]; Log10 Concentration −4.0,−64%
same,Percent Growth,[3]; Log10 Concentration −5.0,72%
same,Percent Growth,[3]; Log10 Concentration −6.0,102%
same,Percent Growth,[3]; Log10 Concentration −7.0,104%
same,Percent Growth,[3]; Log10 Concentration −8.0,106%
same,GI50,[4]; Homo sapiens,20.1 µM
same,CC50,"[4]; Homo sapiens, read-out: LC50",> 100 µM
same,IC (TGI),"[4]; Homo sapiens, read-out: TGI",54.7 µM
same,Percent Growth,[4]; Log10 Concentration −4.0,−30%
same,Percent Growth,[4]; Log10 Concentration −5.0,85%
same,Percent Growth,[4]; Log10 Concentration −6.0,106%
same,Percent Growth,[4]; Log10 Concentration −7.0,106%
same,Percent Growth,[4]; Log10 Concentration −8.0,105%
same,Percent Growth,"[5]; CAKI-1, Log10 Concentration −4.0",−83%
same,Percent Growth,"[5]; CAKI-1, Log10 Concentration −5.0",6%
same,Percent Growth,"[5]; CAKI-1, Log10 Concentration −6.0",88%
same,Percent Growth,"[5]; CAKI-1, Log10 Concentration −7.0",93%
same,Percent Growth,"[5]; CAKI-1, Log10 Concentration −8.0",99%
same,GI50,"[5]; Homo sapiens, CAKI-1",2.88 µM
same,CC50,"[5]; Homo sapiens, CAKI-1, read-out: LC50",42.8 µM
same,IC (TGI),"[5]; Homo sapiens, CAKI-1, read-out: TGI",11.7 µM
same,Percent Growth,[6]; Log10 Concentration −4.0,−87%
same,Percent Growth,[6]; Log10 Concentration −5.0,12%
same,Percent Growth,[6]; Log10 Concentration −6.0,71%
same,Percent Growth,[6]; Log10 Concentration −7.0,66%
same,Percent Growth,[6]; Log10 Concentration −8.0,0.2%
same,GI50,[6]; Homo sapiens,2.25 µM
same,GI50,"[6]; Homo sapiens, 5-dose assay",2.25 µM
same,CC50,"[6]; Homo sapiens, HOP-92, read-out: LC50",42.2 µM
same,IC (TGI),"[6]; Homo sapiens, HOP-92, read-out: TGI",13.1 µM
same,GI50,"[7]; Homo sapiens, SK-MEL-28",5.25 µM
same,CC50,"[7]; Homo sapiens, SK-MEL-28, read-out: LC50",45.5 µM
same,IC (TGI),"[7]; Homo sapiens, SK-MEL-28, read-out: TGI",18.1 µM
same,Percent Growth,"[7]; SK-MEL-28, Log10 Concentration −4.0",−93%
same,Percent Growth,"[7]; SK-MEL-28, Log10 Concentration −5.0",32%
same,Percent Growth,"[7]; SK-MEL-28, Log10 Concentration −6.0",96%
same,Percent Growth,"[7]; SK-MEL-28, Log10 Concentration −7.0",96%
same,Percent Growth,"[7]; SK-MEL-28, Log10 Concentration −8.0",104%
same,GI50,"[8]; Homo sapiens, MOLT-4",5.54 µM
same,CC50,"[8]; Homo sapiens, MOLT-4, read-out: LC50",> 100 µM
same,IC (TGI),"[8]; Homo sapiens, MOLT-4, read-out: TGI",25 µM
same,Percent Growth,"[8]; MOLT-4, Log10 Concentration −4.0",−47%
same,Percent Growth,"[8]; MOLT-4, Log10 Concentration −5.0",31%
same,Percent Growth,"[8]; MOLT-4, Log10 Concentration −6.0",105%
same,Percent Growth,"[8]; MOLT-4, Log10 Concentration −7.0",106%
same,Percent Growth,"[8]; MOLT-4, Log10 Concentration −8.0",106%
same,GI50,[9]; Homo sapiens,2.22 µM
same,GI50,"[9]; Homo sapiens, 5-dose assay",2.22 µM
same,CC50,"[9]; Homo sapiens, RXF 393, read-out: LC50",45 µM
same,IC (TGI),"[9]; Homo sapiens, RXF 393, read-out: TGI",15.5 µM
same,Percent Growth,[9]; Log10 Concentration −4.0,−77%
same,Percent Growth,[9]; Log10 Concentration −5.0,2%
same,Percent Growth,[9]; Log10 Concentration −6.0,76%
same,Percent Growth,[9]; Log10 Concentration −8.0,101%
same,GI50,"[10]; Homo sapiens, PC-3",15.6 µM
same,CC50,"[10]; Homo sapiens, PC-3, read-out: LC50",76.8 µM
same,IC (TGI),"[10]; Homo sapiens, PC-3, read-out: TGI",35.7 µM
same,Percent Growth,"[10]; PC-3, Log10 Concentration −4.0",−67%
same,Percent Growth,"[10]; PC-3, Log10 Concentration −5.0",83%
same,Percent Growth,"[10]; PC-3, Log10 Concentration −6.0",97%
same,Percent Growth,"[10]; PC-3, Log10 Concentration −7.0",95%
same,Percent Growth,"[10]; PC-3, Log10 Concentration −8.0",98%
same,Percent Growth,"[11]; DU-145, Log10 Concentration −4.0",−87%
same,Percent Growth,"[11]; DU-145, Log10 Concentration −5.0",26%
same,Percent Growth,"[11]; DU-145, Log10 Concentration −6.0",97%
same,Percent Growth,"[11]; DU-145, Log10 Concentration −7.0",108%
same,Percent Growth,"[11]; DU-145, Log10 Concentration −8.0",102%
same,GI50,"[11]; Homo sapiens, DU-145",4.59 µM
same,CC50,"[11]; Homo sapiens, DU-145, read-out: LC50",47 µM
same,IC (TGI),"[11]; Homo sapiens, DU-145, read-out: TGI",16.9 µM
same,GI50,"[12]; Homo sapiens, SF-539",5.77 µM
same,CC50,"[12]; Homo sapiens, SF-539, read-out: LC50",43.2 µM
same,IC (TGI),"[12]; Homo sapiens, SF-539, read-out: TGI",15.4 µM
same,Percent Growth,"[12]; SF-539, Log10 Concentration −4.0",−99%
same,Percent Growth,"[12]; SF-539, Log10 Concentration −5.0",36%
same,Percent Growth,"[12]; SF-539, Log10 Concentration −6.0",96%
same,Percent Growth,"[12]; SF-539, Log10 Concentration −7.0",97%
same,Percent Growth,"[12]; SF-539, Log10 Concentration −8.0",103%
same,GI50,"[13]; Homo sapiens, UACC-62",6.29 µM
same,CC50,"[13]; Homo sapiens, UACC-62, read-out: LC50",49 µM
same,IC (TGI),"[13]; Homo sapiens, UACC-62, read-out: TGI",20.3 µM
same,Percent Growth,"[13]; UACC-62, Log10 Concentration −4.0",−90%
same,Percent Growth,"[13]; UACC-62, Log10 Concentration −5.0",40%
same,Percent Growth,"[13]; UACC-62, Log10 Concentration −6.0",89%
same,Percent Growth,"[13]; UACC-62, Log10 Concentration −7.0",92%
same,Percent Growth,"[13]; UACC-62, Log10 Concentration −8.0",100%
same,GI50,"[14]; Homo sapiens, SNB-19",27.7 µM
same,CC50,"[14]; Homo sapiens, SNB-19, read-out: LC50",> 100 µM
same,IC (TGI),"[14]; Homo sapiens, SNB-19, read-out: TGI",160 µM
same,Percent Growth,"[14]; SNB-19, Log10 Concentration −4.0",3%
same,Percent Growth,"[14]; SNB-19, Log10 Concentration −5.0",88%
same,Percent Growth,"[14]; SNB-19, Log10 Concentration −6.0",94%
same,Percent Growth,"[14]; SNB-19, Log10 Concentration −7.0",93%
same,Percent Growth,"[14]; SNB-19, Log10 Concentration −8.0",97%
same,GI50,"[15]; Homo sapiens, SK-MEL-2",15.1 µM
same,CC50,"[15]; Homo sapiens, SK-MEL-2, read-out: LC50",69 µM
same,IC (TGI),"[15]; Homo sapiens, SK-MEL-2, read-out: TGI",32.3 µM
same,Percent Growth,"[15]; SK-MEL-2, Log10 Concentration −4.0",−74%
same,Percent Growth,"[15]; SK-MEL-2, Log10 Concentration −5.0",77%
same,Percent Growth,"[15]; SK-MEL-2, Log10 Concentration −6.0",112%
same,Percent Growth,"[15]; SK-MEL-2, Log10 Concentration −7.0",110%
same,Percent Growth,"[15]; SK-MEL-2, Log10 Concentration −8.0",109%
same,GI50,"[16]; Homo sapiens, KM12",16.5 µM
same,CC50,"[16]; Homo sapiens, KM12, read-out: LC50",62.2 µM
same,TGI,[16]; KM12,3.21E−5
same,Percent Growth,"[16]; KM12, Log10 Concentration −4.0",−86%
same,Percent Growth,"[16]; KM12, Log10 Concentration −5.0",88%
same,Percent Growth,"[16]; KM12, Log10 Concentration −6.0",103%
same,Percent Growth,"[16]; KM12, Log10 Concentration −7.0",107%
same,Percent Growth,"[16]; KM12, Log10 Concentration −8.0",105%
same,GI50,"[17]; Homo sapiens, MDA-MB-468",3.22 µM
same,CC50,"[17]; Homo sapiens, MDA-MB-468, read-out: LC50",64.5 µM
same,IC (TGI),"[17]; Homo sapiens, MDA-MB-468, read-out: TGI",16.4 µM
same,Percent Growth,"[17]; MDA-MB-468, Log10 Concentration −4.0",−66%
same,Percent Growth,"[17]; MDA-MB-468, Log10 Concentration −5.0",18%
same,Percent Growth,"[17]; MDA-MB-468, Log10 Concentration −6.0",83%
same,Percent Growth,"[17]; MDA-MB-468, Log10 Concentration −7.0",89%
same,Percent Growth,"[17]; MDA-MB-468, Log10 Concentration −8.0",95%
same,Percent Growth,"[18]; A498, Log10 Concentration −4.0",−97%
same,Percent Growth,"[18]; A498, Log10 Concentration −5.0",55%
same,Percent Growth,"[18]; A498, Log10 Concentration −6.0",87%
same,Percent Growth,"[18]; A498, Log10 Concentration −8.0",87%
same,GI50,"[18]; Homo sapiens, A498",16.8 µM
same,CC50,"[18]; Homo sapiens, A498, read-out: LC50",49.1 µM
same,IC (TGI),"[18]; Homo sapiens, A498, read-out: TGI",25.1 µM

# Source: patent US9469650B2, “Melampomagnolide B derivatives” (BOARD OF TRUSTEES OF THE UNIVERSITY OF ARKANSAS, priority 2013, dated 2016)
